Tests used:
[1] = biological target: T1, CD40L (Homo sapiens, UniProt P29965); test: Mass spectrometric analysis of CD40L trimer stabilisation; type: binding; conditions: in the presence of DMSO
T1 sequence (P29965 113-261 limits assumed): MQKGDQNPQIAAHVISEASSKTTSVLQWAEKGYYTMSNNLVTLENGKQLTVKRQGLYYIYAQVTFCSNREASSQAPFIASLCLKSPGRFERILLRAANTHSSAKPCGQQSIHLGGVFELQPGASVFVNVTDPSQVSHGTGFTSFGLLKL
Description: Mass spectrometric analysis has shown that CD40L, which also forms homotrimers, is destabilised by DMSO, resulting in a reduced amount of the trimeric CD40L. The assay protocol used was the same as that described in Example 3 for TNFα, but using CD40L instead.

[2] = test system: TNFα stimulated neutrophil recruitment into the peritoneal cavity; test: Neutrophil recruitment in mice, compound given orally before i.p. hTNFα; type: in vivo, Balb/c mice
Procedure: In a further experiment, mice were treated with hTNFα ([…]) and the compound of formula (1) was administered orally (p.o.).
The compound of formula (1) was made into a suspension in 1% methylcellulose vehicle using a covaris machine.
An anti-human TNFα monoclonal antibody (anti-hTNFα, UCB) was also utilised as a positive control in this study.
Ten male Balb/c mice were used per group except in the group that received anti-hTNFα for which 4 mice were used.
All mice were killed by cervical dislocation two hours post-injection of hTNFα (t=2 h) and the peritoneal cavity was lavaged and neutrophil numbers measured as described above.

[3] = biological target: TNFα trimer (Homo sapiens, UniProt P01375); test: Mass spectrometric analysis of compound binding to and stabilisation of TNFα trimer
Procedure: Mass spectrometry was typically performed using a Waters LCT-premier Time-of-Flight mass spectrometer or a Waters SynaptG2 Q-TOF mass spectrometer. Samples were introduced using an Advion Triversa Nanomate nanoflow infusion device which replaces the conventional spectrometer source, sample injection was via an “A” series chip with […] nozzle size at a nominal flow rate of 100 nl/min. Further modifications to the Waters LCT-premier Time-of-Flight mass spectrometer include a customised source cooling device allowing precise control of the source temperature and a commercial pressure regulation device giving precise control over the vacuum conditions in the source region. Together these modifications help retain the TNFα trimer in a native, folded conformation and facilitate the detection of complexes formed with test compounds of weak affinities.
Ions were generated using standard positive ion electrospray conditions resulting in multiple charging of TNFα.
Mass spectrometry is very sensitive to the buffer salts present in the protein sample. Typical buffer salts such as potassium or sodium phosphates have a severely detrimental affect on ionisation. Accordingly protein samples were pre-treated to remove these salts using a Zeba desalt spin column, the protein being exchanged into a mass spectrometry compatible buffer system, typically 50 mM Ammonium Acetate at pH 6.8.
Typically the test compounds were presented as 10 mM DMSO stock solutions such that when they are incubated with TNFα in solution the final DMSO concentration is 5%. […] This is evidenced by the changes in the number of charges acquired by the protein under the various conditions described.
Test compounds were prepared as 10 mM solutions in dimethylsulphoxide (DMSO). Therefore, it was necessary to establish the effect of DMSO on the native TNFα trimer in the absence of a test compound. DMSO was added to an aqueous solution of TNFα trimer to give a final concentration of 5% v/v and the mass spectrum acquired.
The compound of formula (1) was added to a solution containing TNFα and 5% v/v DMSO and the mass spectrum acquired.
Further evidence for the stabilization of the trimeric form of TNFα by the test compounds was obtained from analyzing the samples under harsher ionization conditions that tend to favour breakdown of the native trimeric form into monomers.
Incubation of a library of test compounds, including the compound of formula (1) with TNFα was monitored by mass spectrometry under soft ionization conditions. […] This confirms that the test compounds, including the compound of formula (1), have a different mode of action to known compounds, which stabilize the dimeric form of TNFα.
A species of lower molecular weight (˜473 Da appears to bind at less than 5% occupancy). C87 has a molecular weight of 503 Da.

[4] = test system: activation of NF-κB by activating anti-human TNFR1 antibody; test: HEK-293 NF-κB SEAP reporter gene assay, activating TNF-R1 antibody counterscreen; type: cell-based; conditions: HEK293, HEK-293 reporter cells, antibody 300 ng/ml
Procedure: Stimulation of HEK-293 cells by TNF-alpha leads to activation of the NF-kB pathway. The reporter cell line used to determine TNF alpha activity was purchased from Invivogen. HEK-Blue™ CD40L, is a stable transfectant expressing SEAP (secreted alkaline phosphatase) under the control of the IFN-beta minimal promoter fused to 5 NF-kB binding sites. Secretion of SEAP by these cells is stimulated in a concentration dependent manner by TNF-alpha (0.5 ng/ml), IL-1-beta (0.5 ng/ml) and an activating anti-human TNFR1 antibody (300 ng/ml).
Compounds were diluted from 10 mM DMSO stocks (final assay concentration 0.3%) to generate a 10 point 3 fold serial dilution curve (30,000 nM to 2 nM final concentration). They were mixed with stimulating ligand for 1 hour in a 384 well microtitre plate. Freshly thawed and washed cells were added to the compound/stimulus mixture and further incubated for 18 hours. SEAP activity was determined in the supernatant using the colorimetric substrate Quanti-Blue™ (Invivogen).
Percentage inhibitions for compound dilutions were calculated between a DMSO control and maximum inhibition (by excess control compound) and an IC50 calculated using xlfit (4 parameter logistic model) in Activity Base.
The specific activity of each compound against the TNF-alpha response was compared to that seen with the counterscreens (IL-1beta and anti-human TNFR1 antibody).

Chain of TNFα trimer (P01375 77-233 limits assumed): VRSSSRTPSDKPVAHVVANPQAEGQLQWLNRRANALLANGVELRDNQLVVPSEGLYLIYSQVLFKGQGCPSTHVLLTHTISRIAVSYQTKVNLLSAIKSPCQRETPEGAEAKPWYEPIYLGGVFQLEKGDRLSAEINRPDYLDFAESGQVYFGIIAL

Cc1ccc(C)c(Cn2c(C(O)c3ccncc3)nc3ccccc32)c1 (stereo not drawn) [Compound (1), [1-(2,5-Dimethylbenzyl)-1H-benzimidazol-2-yl](pyridin-4-yl)methanol] was tested, and the “stabilisation of trimeric CD40L” value [1] was “stabilise trimeric CD40L”, the “reduction of TNFα stimulated neutrophil recruitment into the peritoneal cavity” value ([2]; 30 mg/kg p.o. 30 minutes before hTNFα 0.03 μg/kg i.p.) was 49% and the “reduction of TNFα stimulated neutrophil recruitment into the peritoneal cavity” value ([2]; 100 mg/kg p.o. 30 minutes before hTNFα 0.03 μg/kg i.p.) was 79%. The “stabilisation of trimeric TNFα (charge state envelope)” value ([3]; 5% v/v DMSO, soft ionisation) was “stabilization of the trimeric TNFα complex over and above that observed in the absence of DMSO”, the “quantity of TNFα monomer detected” value ([3]; harsher ionization conditions, data not shown) was “significantly reduced” and the “binding to the monomeric form of TNFα” value ([3]; soft ionization conditions) was “not observed to bind”. For the same compound, the “stabilization of the dimeric form of TNFα” value ([3]; soft ionization conditions) was “no evidence for stabilization” and the stoichiometry of binding ([3]; soft ionization conditions) was “one molecule of the compound of formula (1) per TNFα trimer”.

With Cc1ccc(C)c(Cn2c(C(O)c3ccncc3)nc3ccc(-c4cnn(C)c4)cc32)c1 (stereo not drawn) [Compound (2), [1-(2,5-Dimethylbenzyl)-6-(1-methyl-1H-pyrazol-4-yl)-1H-benzimidazol-2-yl](pyridin-4-yl)methanol] the IC50 [4] was greater than 30 µM.
